ChEMBL document CHEMBL3085746, “Discovery of novel PTP1B inhibitors via pharmacophore-oriented scaffold hopping from Ertiprotafib” (Bioorg Med Chem Lett, 2013)

Legend:
[1] = target: T1, Tyrosine-protein phosphatase non-receptor type 1 (Homo sapiens, UniProt P18031); assay: Inhibition of GST-tagged recombinant human PTP1B
T1 sequence (P18031 whole entry): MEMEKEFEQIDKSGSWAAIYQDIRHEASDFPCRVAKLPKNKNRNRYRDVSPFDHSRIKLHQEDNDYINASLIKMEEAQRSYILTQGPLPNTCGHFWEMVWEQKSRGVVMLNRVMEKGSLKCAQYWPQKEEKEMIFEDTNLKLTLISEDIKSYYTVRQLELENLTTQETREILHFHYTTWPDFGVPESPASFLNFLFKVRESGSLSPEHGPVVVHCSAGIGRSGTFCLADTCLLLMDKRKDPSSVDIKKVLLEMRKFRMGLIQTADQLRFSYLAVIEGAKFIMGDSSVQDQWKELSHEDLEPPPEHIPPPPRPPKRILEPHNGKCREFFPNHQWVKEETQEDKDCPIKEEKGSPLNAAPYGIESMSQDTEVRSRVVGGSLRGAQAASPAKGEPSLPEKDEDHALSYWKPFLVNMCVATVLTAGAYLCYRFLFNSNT

[2] = target: T2, Tyrosine-protein phosphatase non-receptor type 1 (Homo sapiens) (UniProt P18031); assay: Inhibition of GST-tagged recombinant human PTP1B at 100 uM
T2 sequence (whole entry): T1 sequence (P18031 whole entry)

Row | Structure (SMILES) | IC50 [1] | inhibition [2]
1 | O=C(O)[C@@H](Cc1ccccc1)Oc1ccc(-n2c3ccccc3c3ccccc32)cc1 | 40.3 µM | 98.4%
2 | COc1ccc(N(Cc2ccc3c(c2)OCO3)C(=O)c2ccc(CN(CC(=O)O)Cc3ccccc3)cc2)cc1 | – | < 40%
3 | O=C(O)CN(Cc1ccccc1)c1ccc(CN(Cc2ccc3c(c2)OCO3)c2ccc(F)cc2)cc1 | – | 44.3%
4 | O=C(N[C@H](Cc1ccccc1)C(=O)O)c1ccc(Cn2c3ccccc3c3ccccc32)cc1 | – | 51.8%
5 | O=C(O)CC(CC(=O)c1ccccc1)c1ccc(CN(Cc2ccc3c(c2)OCO3)c2ccc(F)cc2)cc1 (stereo not given) | – | 59.1%
6 | O=C(O)CC(CC(=O)c1ccccc1)c1ccc(OC(c2ccccc2)c2ccccc2)cc1 (stereo not given) | – | 61%
7 | O=C(N[C@H](Cc1ccccc1)C(=O)O)c1ccc(CN(Cc2ccccc2)c2ccccc2)cc1 | 3.9 µM | 113%
8 | O=C(O)[C@@H](Cc1ccccc1)Oc1c(Br)cc(-c2c3ccccc3c(Br)c3oc4ccccc4c23)cc1Br | 0.87 µM | 100%
9 | O=C(N[C@H](Cc1ccccc1)C(=O)O)c1ccc(C(=O)N(Cc2ccccc2)Cc2ccccc2)cc1 | – | < 40%
10 | COc1ccc(N(Cc2ccc(O[C@H](Cc3ccccc3)C(=O)O)cc2)C(=O)c2ccc3c(c2)OCO3)cc1 | – | < 40%
11 | O=C(O)CC(CC(=O)c1ccccc1)c1ccc(-n2c3ccccc3c3ccccc32)cc1 (stereo not given) | 10.2 µM | 106%
12 | COc1ccc(N(Cc2ccc3c(c2)OCO3)C(=O)c2ccc(C(CC(=O)O)CC(=O)c3ccccc3)cc2)cc1 (stereo not given) | – | < 40%
13 | O=C(O)CN(C(=O)Cc1ccccc1)c1ccc(CN(Cc2ccc3c(c2)OCO3)c2ccc(F)cc2)cc1 | 1.3 µM | 96.4%
14 | COc1ccc(N(Cc2ccc(C(=O)N[C@H](Cc3ccccc3)C(=O)O)cc2)Cc2ccc3c(c2)OCO3)cc1 | – | 100%
15 | O=C(O)CC(CC(=O)c1ccccc1)c1ccc(Cn2c3ccccc3c3ccccc32)cc1 (stereo not given) | 10 µM | 98%
16 | O=C(N[C@H](Cc1ccccc1)C(=O)O)c1ccc(CN(Cc2ccccc2)Cc2ccccc2)cc1 | 23.9 µM | 95%
17 | O=C(N[C@H](Cc1ccccc1)C(=O)O)c1ccc(Cn2c(Cc3ccccc3)nc3ccccc32)cc1 | – | 53.4%
18 | O=C(O)CN(Cc1ccccc1)Cc1ccc(-n2c3ccccc3c3ccccc32)cc1 | – | 67.3%
19 | O=C(O)[C@@H](Cc1ccccc1)Oc1ccc(CN(Cc2ccc3c(c2)OCO3)c2ccc(F)cc2)cc1 | 10.4 µM | 112%
20 | O=C(N[C@H](Cc1ccccc1)C(=O)O)c1ccc(CN(c2ccccc2)c2ccccc2)cc1 | – | 83.8%
21 | O=C(O)[C@@H](Cc1ccccc1)Oc1ccc(C(=O)N(Cc2ccc3c(c2)OCO3)c2ccc(F)cc2)cc1 | – | < 40%
22 | COc1ccc(N(Cc2ccc(O[C@H](Cc3ccccc3)C(=O)O)cc2)C(=O)c2ccc(C(=O)O)cc2)cc1 | – | < 40%
